The results in this text go back to US20150094294A1, “COMPOUNDS AND METHODS FOR TREATING MALARIA” (Cellceutix Corporation, priority 2012, published 2015).

Common to all, as to type: cell-based
One series deals with HepG2 cells. The experiment in a line: Cytotoxicity against HepG2 cells. As to conditions: for Cytotoxicity HepG2 EC50: HepG2 cells.
In series [1] the test system is P. falciparum DD2 (chloroquine-resistant). The series is described as follows: Anti-malarial activity, P. falciparum DD2 culture, 72 hour, DNA content by flow cytometry. The conditions noted are these: synchronized ring-stage parasites. Here is the method: Numerous compounds were screened in cultures of the malaria parasite P. falciparum 3D7 (chloroquine-sensitive) and DD2 (chloroquine-resistant). The compounds were also screened for toxixcity against 3T3 cells, HepG2 cells, and in a hemolysis assay. In brief, P. falciparum parasites were cultured in RPMI 1640 (Invitrogen) supplemented with Albumax II (Invitrogen). For synchronization, schizont stage parasites were magnet purified using a SuperMACS™ II Cell Separation Unit (Miltenyi Biotech). For IC50 determinations, synchronized ring-stage parasites were plated at 0.5% parasitemia and 8% hematocrit in 96-well plates at a total volume of 50 μL. Serial dilutions of 2× concentration of the respective compound, ranging from 2.5 μM to 20 nM, were added to the wells to bring the total volume up to 100 μL and 4% hematocrit. Compounds were assayed for a 72 hour period, after which the cultures were fixed with a solution of 4% paraformaldehyde and 0.08% glutaraldhyde in PBS. The cells were then permeabilized with 0.25% Triton X-100, and SYTOX Green Nucleic Acid Stain (Invitrogen) in PBS was added to a final concentration of 5 μM. DNA content, as an indicator of parasitemia, was analyzed on an Accuri C6 Flow Cytometer with C-Sampler. IC50 curves were generated using GraphPad Prism (GraphPad Software).
On the technique in general: Flow cytometry measures light scatter and fluorescence of single cells or particles in a stream.

The subject of the next series is 3T3 cells. The experiment in a line: Cytotoxicity against 3T3 cells. The conditions noted are these: for Cytotoxicity 3T3 EC50: 3T3 cells.
Series [2] concerns P. falciparum 3D7 (chloroquine-sensitive). The series is described as follows: Anti-malarial activity, P. falciparum 3D7 culture, 72 hour, DNA content by flow cytometry. The conditions noted are these: synchronized ring-stage parasites. A digest of the protocol: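 Magnet-synchronized ring-stage parasites in RPMI 1640/Albumax II were plated at 0.5% parasitemia, 4% final hematocrit, with compound added as 2× dilutions (2.5 μM to 20 nM) for 72 h. Fixed, Triton-permeabilized cells were stained with SYTOX Green (5 μM final), and DNA content was measured by flow cytometry to derive IC50.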

The nature of series [3]: Cytotoxicity against HepG2 cells. As to conditions: human, HepG2 cells; read-out: Cytotoxicity HepG2 EC50.
A short description of a further series: in vitro.
Series [4] can be described thus: Cytotoxicity against 3T3 cells. The conditions noted are these: mouse, 3T3 cells; read-out: Cytotoxicity 3T3 EC50.
Setting [5] is: Plasmodium falciparum, 3D7, 72 h.

SMILES strings stand for the structures. In brackets after ≈: the same amount, converted by molar mass. Bounds are passed on as bounds.

As for `CN(C)CCSc1cc(SCCN(C)C)c(C(F)(F)F)cc1NC(=O)c1cc(C(=O)Nc2cc(C(F)(F)F)c(SCCN(C)C)cc2SCCN(C)C)ncn1` [Compound 102], the EC50 – broadly, the concentration giving half of the maximal effect – is 49.8 µM in the series with HepG2 cells and < 2 µM with 3T3 cells. For the same molecule, the IC50 (commonly the point on the concentration scale where inhibition reaches its midpoint) in series [1] stood at 0.238 µM; in series [2], 0.064 µM.
As to `O=C(Nc1cc(C(F)(F)F)c(OC2CCNC2)cc1OC1CCNC1)c1cc(C(=O)Nc2cc(C(F)(F)F)c(OC3CCNC3)cc2OC2CCNC2)ncn1` (stereo not drawn) [Compound 103], the EC50 came out at 382 µM with HepG2 cells and 256 µM in the series with 3T3 cells. Besides, the IC50 was determined as 0.207 µM in series [1] and 0.147 µM in series [2].
Regarding `CC(C)(C)c1cc(N)c(SCCN)c(NC(=O)c2cccc(C(=O)Nc3cc(C(C)(C)C)cc(N)c3SCCN)n2)c1` [Compound 117], the EC50 with HepG2 cells was 9 µM; in the series with 3T3 cells, 5 µM. In addition, the IC50 is 0.803 µM in series [1] and 0.732 µM in series [2].
For `N=C(N)NCCSc1ccc(NC(=O)Nc2ccc(SCCNC(=N)N)c(C(F)(F)F)c2)cc1C(F)(F)F` [Compound 120] the same measures were 165 µM, 65.1 µM, 0.0459 µM and 0.083 µM.
On the same counts, the results for `CCN(CC)CCN(CCN)c1c(NC(=O)Nc2cc(C(F)(F)F)cc([N+](=O)[O-])c2N(CCN)CCN(CC)CC)cc(C(F)(F)F)cc1[N+](=O)[O-]` [Compound 123] are 433 µM, 284 µM, 0.331 µM and 0.157 µM.
On to `CC(N)C(=O)Nc1ccc(-c2ccc(-c3ccc(NC(=O)C(C)N)cc3)cc2)cc1` (stereo not drawn) [Compound 136], for which the EC50 with HepG2 cells and with 3T3 cells was > 1000 µM in each case. Besides, the IC50 in series [1] was found to be 0.421 µM; in series [2] it was 0.178 µM.
For the molecule `CC(C)(C)c1ccc(NC(=O)CCCCNC(=N)N)c(-c2ccc(-c3cc(C(C)(C)C)ccc3NC(=O)CCCCNC(=N)N)cc2)c1` [Compound 141], the EC50 stood at 55 µM in the series on HepG2 cells and 28 µM with 3T3 cells. Besides, the results for the IC50 in series [1] and in series [2] were 0.709 µM and 0.625 µM, respectively.
For `N=C(N)NCCCOc1cc(OCCCNC(=N)N)c(-c2ccccc2)cc1-c1ccccc1` [Compound 143], the EC50 in the series with HepG2 cells stood at 119 µM; with 3T3 cells, 74 µM. For the same molecule, in series [1], 0.102 µM corresponded to half-maximal inhibition (IC50).
For the molecule `N=C(N)NCCCCOc1cc(OCCCCNC(=N)N)c(C(F)(F)F)cc1NC(=O)Nc1ccc(NC(=O)Nc2cc(C(F)(F)F)c(OCCCCNC(=N)N)cc2OCCCCNC(=N)N)cc1` [Compound 167], the figures for the EC50 (in series [3]; in “in vitro”; in series [4]) were 60 µM, 7 µg/mL (≈ 7.01 µM) and 37 µM, respectively. Besides, the IC50 turned out to be 0.951 µM in series [1] (Plasmodium falciparum) and 0.724 µM in series [2] (setting [5]).
For `N=C(N)NCCCCC(=O)Nc1cc(C(F)(F)F)cc(NC(=O)c2cc(C(=O)Nc3cc(C(F)(F)F)cc(NC(=O)CCCCNC(=N)N)c3SCCC(=O)O)ncn2)c1SCCC(=O)O` [Compound 168] the same measures were > 100 µM, > 1000 µg/mL, > 100 µM, 0.098 µM and 0.227 µM.
On the same counts, the results for `N=C(N)NCCCCC(=O)Nc1cc(Br)cc(NC(=O)c2cc(C(=O)Nc3cc(Br)cc(NC(=O)CCCCNC(=N)N)c3SCCO)ncn2)c1SCCO` [Compound 170] are 165 µM, 59 µg/mL (≈ 62.7 µM), 110 µM, 0.591 µM and 0.569 µM.
In the case of `N=C(N)NCCOc1ccccc1C(=O)Nc1ccc2c(c1)Cc1cc(NC(=O)c3ccccc3OCCNC(=N)N)ccc1-2` [Compound 172], in the series on HepG2 cells, the “Cytotoxicity HepG2 EC50” value is recorded as “Insol”. This molecule also showed an IC50 in series [1] (Plasmodium falciparum) of 0.297 µM. In the series “in vitro”, this molecule had an EC50 of 22 µg/mL (≈ 36.3 µM). Besides, the “Cytotoxicity 3T3 EC50” value with 3T3 cells was “Insol”.
In the case of `N=C(N)NCCCCC(=O)Nc1ccc(-c2ccc(NC(=O)CCCCNC(=N)N)c(C(F)(F)F)c2)cc1C(F)(F)F` [Compound 173], the EC50 in series [3] was > 2000 µM; in the series “in vitro”, > 1000 µg/mL; in series [4], > 2000 µM. For the same molecule, the IC50 in series [1] (Plasmodium falciparum) is 0.274 µM; in series [2] (setting [5]) it was 0.204 µM.
`NCCSc1ccc(C(F)(F)F)cc1C(=O)Nc1ccc(-c2ccc(NC(=O)c3cc(C(F)(F)F)ccc3SCCN)cc2)cc1` [Compound 174]: the results for the EC50 (in series [3]; in the series “in vitro”; in series [4]) were < 16 µM, 1 µg/mL (≈ 1.47 µM) and < 16 µM, respectively. Besides, the IC50 in series [1] (Plasmodium falciparum) came to 0.393 µM; in series [2] (setting [5]) it was 0.593 µM.
For the molecule `COc1ccc(CN)cc1NC(=O)c1cc(C(=O)Nc2cc(CN)ccc2OC)ncn1` [Compound 175], the EC50 was 362 µM in series [3], > 1000 µg/mL in “in vitro” and 302 µM in series [4]. The results for the IC50 in series [1] (Plasmodium falciparum) and in series [2] (setting [5]) were 0.564 µM and 0.423 µM, respectively.
On to `N=C(N)NCCc1cc(Br)cc(C#Cc2cc(C#Cc3cc(Br)cc(CCNC(=N)N)c3)cc(C(F)(F)F)c2)c1` [Compound 179], for which the “Cytotoxicity HepG2 EC50” value in the series with HepG2 cells was “insol”. Also, the IC50 in series [1] (Plasmodium falciparum) is 0.795 µM; in series [2] (setting [5]), 0.88 µM. The molecule further had an EC50 in “in vitro” of 22 µg/mL (≈ 32.6 µM). Moreover, the “Cytotoxicity 3T3 EC50” value in the series with 3T3 cells is reported as “insol”.
For the molecule `NCCSc1c(N)cc(C(F)(F)F)cc1NC(=O)c1cn(C2CC2)c2cc(N3CCNCC3)c(F)cc2c1=O` [Compound 181], the results for the EC50 (in series [3]; in the series “in vitro”; in series [4]) were 154 µM, > 1000 µg/mL and 81 µM, respectively. Also, the values for the IC50 in series [1] (Plasmodium falciparum) and in series [2] (setting [5]) were 0.74 µM and 0.688 µM, respectively.
